According to patent publication US9938240B2, “Fluorinated derivatives of 3-hydroxypyridin-4-ones” (Apotex Technologies Inc., priority 2009, dated 2018):

How the values were obtained:
[1] = system: human neuroblastoma MC-65 cells; test: cells; settings: for EC100 / minimal effective concentration: Homo sapiens, MC65, 48 h; for EC100: read-out: EC100 (maximum effective concentration); for minimal effective concentration: read-out: TH (threshold protective concentration); for CC2 (cytotoxic concentration): MC-65, cultured without tetracycline; for CC2 (cytotoxic concentration) / CC1 (cytotoxic concentration): viability below 80%; for CC1 (cytotoxic concentration): MC-65, presence of TET
Experimental: In this assay, human neuroblastoma cells (MC-65 cells) are genetically engineered to conditionally express amyloid β peptide (Aβ). The Aβ production is suppressed by tetracycline (TET+) presence in culture medium, and its production is activated when TET is withdrawn (TET−). The activation of Aβ production results in cell death “MC-65 suicide”.
Protective effect of compounds against edogenously produced amyloid beta (Aβ) was assessed in human neuroblastoma MC-65 cells. MC-65 cells have been stably transformed to conditionally express high levels of a partial amyloid precursor (AP) fusion protein (Bryce Sopher et al., Brain Res Mol Brain Res. 1994, 207-17.). This protein is further proteolitically processed in the cells to form a set of AP-derived Aβ peptides. […] Activity of the promoter is tightly regulated by the presence of the antibiotic tetracycline (TET) in the culture medium. In the presence of TET (TET+), the promoter is in the basal state and no amyloid beta peptide is synthesized. In the absence of TET (TET−) the promoter is in induced state, resulting in the accumulation of Aβ peptides in the cells, degenerative changes in cell morphology and decreased survival.
Transfected human neuroblastoma cells (MC-65) were cultured in DMEM (ATCC) supplemented with non-essential amino acids and 10% FBS (VWR) in the presence of TET (1 μg/mL). For the experiment, the cells were plated at 35,000 cells/cm^2 and grown for 1 day in the regular culture media prior to compound addition. On the day of the assay, culture supernatant was removed from the wells and cells were thoroughly washed once with the compound incubation matrix containing no FBS and no TET. MC-65 cells were treated with a test compound at pre-determined range of concentrations in a basal medium containing no FBS and in the absence or presence of 1 μg/mL TET for approximately 48 h. Cell viability was then measured using the MTT method.
For data analysis, cell viabilities relative to the control not treated with a test compound and maintained in the presence of TET were plotted against the compound concentration. […] Cytotoxicity of the test compound was assessed in the cells maintained in the presence of TET.

[2] = system: SH-SY5Y human neuroblastoma cells; settings: for CC2 (cytotoxic concentration): H2O2-treated cells, viability below 80%; for CC1 (cytotoxic concentration): absence of H2O2, viability below 80%
Text: Hydrogen peroxide (H2O2) is a major ROS (reactive oxidative species), which causes oxidative stress, and can induce apoptosis in many different cell types. One of the CNS drug design strategies is to use compounds with antioxidant properties as a possible treatment of both acute and chronic neurodegenerative diseases (Kang et al. Bioorganic & Medicinal Chemistry Letters, 2004, 14, 2261-2264). This involves testing the compounds of this invention for their protective effect against oxidative stress-induced cell death in SH-SY5Y human neuroblastoma cells. SH-SY5Y human neuroblastoma cells were cultured in DMEM (ATCC)/F12 (Cellgro) with 10% FBS. The cells were plated at 30,000 cells/cm^2 and grown for 1 day in the regular culture media prior to compound addition. Cells were routinely treated with the test compound, at a pre-determined range of concentrations, in the presence or absence of 50 μM hydrogen peroxide in a basal medium containing no FBS for 16-22 h. Cell viability was then measured using the routine MTT method (Mosmann, T., Rapid Colorimetric Assay for Cellular Growth and Survival: Application to Proliferation and Cytotoxicity Assays”. J. Immunol. Meth. 1983, 65, 55-63).
For data analysis, cell viability relative to control not treated with either H2O2 or the test compound, was plotted against the compound concentration. […] Cytotoxicity of the test compound was assessed in the absence of hydrogen peroxide.

## Cc1cc(=O)c(O)cn1CC(F)(F)F [Apo6994, 5-hydroxy-2-methyl-1-(2,2,2-trifluoroethyl)pyridin-4(1H)-one]
[1]
  EC100: 10 µM
  minimal effective concentration: 1 µM
  CC2 (cytotoxic concentration): >80 µM
  CC1 (cytotoxic concentration): >80 µM
[2]
  CC2 (cytotoxic concentration): 640 µM
  CC1 (cytotoxic concentration): 160 µM

## CNC(=O)[C@@H](C)NC(c1c(O)c(=O)ccn1C)C(F)(F)F (stereo partly drawn) [Apo6998, N-methyl-N2-[2,2,2-trifluoro-1-(3-hydroxy-1-methyl-4-oxo-1,4-dihydropyridin-2-yl)ethyl]-D-alaninamide]
[2]
  CC2 (cytotoxic concentration): 100 µM
  CC1 (cytotoxic concentration): 20 µM

## CN(C)Cc1cc(=O)c(O)c(CC(F)(F)F)n1C [Apo7021, 6-[(dimethylamino)methyl]-3-hydroxy-1-methyl-2-(2,2,2-trifluoroethyl)pyridin-4(1H)-one]
[1]
  EC100: 10 µM
  minimal effective concentration: 0.1 µM
  CC2 (cytotoxic concentration): 20 µM
  CC1 (cytotoxic concentration): 10 µM
[2]
  CC2 (cytotoxic concentration): >640 µM
  CC1 (cytotoxic concentration): 80 µM

## CN(C)Cc1cc(=O)c(O)c(C(O)C(F)(F)F)n1C (centres unmarked) [Apo7022, 6-[(dimethylamino)methyl]-3-hydroxy-1-methyl-2-(2,2,2-trifluoro-1-hydroxyethyl)pyridin-4(1H)-one]
[1]
  EC100: 20 µM
  minimal effective concentration: 0.1 µM
  CC2 (cytotoxic concentration): 40 µM
  CC1 (cytotoxic concentration): 10 µM
[2]
  CC2 (cytotoxic concentration): 320 µM
  CC1 (cytotoxic concentration): 40 µM

## C[C@H](NCc1cc(=O)c(O)c(C(O)C(F)(F)F)n1C)C(=O)O (stereo partly drawn) [Apo7032, N-{[5-hydroxy-1-methyl-4-oxo-6-(2,2,2-trifluoro-1-hydroxyethyl)-1,4-dihydropyridin-2-yl]methyl}-L-alanine]
[1]
  EC100: 10 µM
  minimal effective concentration: 0.1 µM
  CC2 (cytotoxic concentration): 40 µM
  CC1 (cytotoxic concentration): 80 µM
[2]
  CC2 (cytotoxic concentration): >640 µM
  CC1 (cytotoxic concentration): 10 µM

## CNC(=O)[C@H](C)NCc1cc(=O)c(O)c(C(O)C(F)(F)F)n1C (stereo partly drawn) [Apo7033, N-2-{[5-hydroxy-1-methyl-4-oxo-6-(2,2,2-trifluoro-1-hydroxyethyl)-1,4-dihydropyridin-2-yl]methyl}-N-methyl-L-alaninamide]
[2]
  CC2 (cytotoxic concentration): >640 µM
  CC1 (cytotoxic concentration): 40 µM

## Cc1c(Cl)c(=O)c(O)c(C(O)C(F)(F)F)n1C (centres unmarked) [Apo7038, 3-chloro-5-hydroxy-1,2-dimethyl-6-(2,2,2-trifluoro-1-hydroxyethyl)pyridin-4(1H)-one]
[2]
  CC2 (cytotoxic concentration): >640 µM
  CC1 (cytotoxic concentration): 40 µM

## Cc1c(O)c(=O)c(C(N2CCCCC2)C(F)(F)F)cn1C (centres unmarked) [Apo7054, 3-Hydroxy-1,2-dimethyl-5-[2,2,2-trifluoro-1-(piperidin-1-yl)ethyl]pyridin-4(1H)-one]
[1]
  EC100: 1 µM
  minimal effective concentration: 0.1 µM
  CC2 (cytotoxic concentration): 20 µM
  CC1 (cytotoxic concentration): 20 µM
[2]
  CC2 (cytotoxic concentration): >640 µM
  CC1 (cytotoxic concentration): 5 µM

## Cc1c(O)c(=O)c(C(n2ccnc2)C(F)(F)F)cn1C (centres unmarked) [Apo7055, 3-Hydroxy-1,2-dimethyl-5-[2,2,2-trifluoro-1-(1H-imidazol-1-yl)ethyl]pyridin-4(1H)-one]
[1]
  EC100: 20 µM
  minimal effective concentration: 1 µM
  CC2 (cytotoxic concentration): 40 µM
  CC1 (cytotoxic concentration): 40 µM
[2]
  CC2 (cytotoxic concentration): >640 µM
  CC1 (cytotoxic concentration): 10 µM

## C#CCN(C)C(c1c(O)c(=O)ccn1C)C(F)(F)F (centres unmarked) [Apo7057, 3-hydroxy-1-methyl-2-{2,2,2-trifluoro-1-[methyl(prop-2-yn-1-yl)amino]ethyl}pyridin-4(1H)-one]
[1]
  EC100: 10 µM
  minimal effective concentration: 1 µM
  CC2 (cytotoxic concentration): 20 µM
  CC1 (cytotoxic concentration): 20 µM
[2]
  CC2 (cytotoxic concentration): 80 µM
  CC1 (cytotoxic concentration): 5 µM

## Cn1ccc(=O)c(O)c1C(N1CCCCC1)C(F)(F)F (centres unmarked) [Apo7058, 3-hydroxy-1-methyl-2-[2,2,2-trifluoro-1-(piperidin-1-yl)ethyl]pyridin-4(1H)-one]
[1]
  EC100: 10 µM
  minimal effective concentration: 1 µM
  CC2 (cytotoxic concentration): 80 µM
  CC1 (cytotoxic concentration): 10 µM
[2]
  CC2 (cytotoxic concentration): >640 µM
  CC1 (cytotoxic concentration): 20 µM

## Cc1c(Cl)c(=O)c(O)c(C(N(C)C)C(F)(F)F)n1C (centres unmarked) [Apo7059, 3-chloro-6-[1-(dimethylamino)-2,2,2-trifluoroethyl]-5-hydroxy-1,2-dimethylpyridin-4(1H)-one]
[1]
  EC100: 10 µM
  minimal effective concentration: 1 µM
  CC2 (cytotoxic concentration): 40 µM
  CC1 (cytotoxic concentration): 10 µM
[2]
  CC2 (cytotoxic concentration): 640 µM
  CC1 (cytotoxic concentration): 40 µM

## Cn1cc(Cl)c(=O)c(O)c1C(N1CCCCC1)C(F)(F)F (centres unmarked) [Apo7061, 5-chloro-3-hydroxy-1-methyl-2-[2,2,2-trifluoro-1-(piperidin-1-yl)ethyl]pyridin-4(1H)-one]
[1]
  EC100: 10 µM
  minimal effective concentration: 1 µM
  CC2 (cytotoxic concentration): 20 µM
  CC1 (cytotoxic concentration): 40 µM
[2]
  CC2 (cytotoxic concentration): 10 µM
  CC1 (cytotoxic concentration): 10 µM

## Cc1c(O)c(=O)c(C(N2CCN(C)CC2)C(F)(F)F)cn1C.Cl (centres unmarked) [Apo7063, 3-Hydroxy-1,2-dimethyl-5-[2,2,2-trifluoro-1-(4-methylpiperazin-1-yl)ethyl]pyridin-4(1H)-one hydrochloride]
[2]
  CC2 (cytotoxic concentration): >640 µM
  CC1 (cytotoxic concentration): 320 µM

## Cc1cc(=O)c(O)c(CN2CCCCC2)n1CC(F)(F)F [Apo7071, 3-hydroxy-6-methyl-2-(piperidin-1-ylmethyl)-1-(2,2,2-trifluoroethyl)pyridin-4(1H)-one]
[1]
  EC100: 10 µM
  minimal effective concentration: 1 µM
  CC2 (cytotoxic concentration): 20 µM
  CC1 (cytotoxic concentration): 40 µM
[2]
  CC2 (cytotoxic concentration): 80 µM
  CC1 (cytotoxic concentration): 20 µM

## CN1CCN(C(c2c(O)c(=O)ccn2C)C(F)(F)F)CC1 (centres unmarked) [Apo7073, 3-hydroxy-1-methyl-2-[2,2,2-trifluoro-1-(4-methylpiperazin-1-yl)ethyl]pyridin-4(1H)-one]
[1]
  EC100: 10 µM
  minimal effective concentration: 0.1 µM
  CC2 (cytotoxic concentration): 20 µM
  CC1 (cytotoxic concentration): 40 µM
[2]
  CC2 (cytotoxic concentration): >640 µM
  CC1 (cytotoxic concentration): 40 µM

## Cn1ccc(=O)c(O)c1C(NC1CC1)C(F)(F)F (centres unmarked) [Apo7074, 2-[1-(cyclopropylamino)-2,2,2-trifluoroethyl]-3-hydroxy-1-methylpyridin-4(1H)-one]
[1]
  EC100: 10 µM
  minimal effective concentration: 0.1 µM
  CC2 (cytotoxic concentration): 20 µM
  CC1 (cytotoxic concentration): 10 µM
[2]
  CC2 (cytotoxic concentration): >640 µM
  CC1 (cytotoxic concentration): 20 µM

## C=CCNC(c1c(O)c(=O)ccn1C)C(F)(F)F (centres unmarked) [Apo7075, 3-hydroxy-1-methyl-2-[2,2,2-trifluoro-1-(prop-2-en-1-ylamino)ethyl]pyridin-4(1H)-one]
[1]
  EC100: 10 µM
  minimal effective concentration: 0.1 µM
  CC2 (cytotoxic concentration): 20 µM
  CC1 (cytotoxic concentration): 10 µM
[2]
  CC2 (cytotoxic concentration): >640 µM
  CC1 (cytotoxic concentration): 20 µM

## Cn1ccc(=O)c(O)c1C(C(F)F)N1CCN(c2ccccn2)CC1 (centres unmarked) [Apo7316, 2-(2,2-difluoro-1-(4-(pyridin-2-yl)piperazin-1-yl)ethyl)-3-hydroxy-1-methylpyridin-4(1H)-one]
[1]
  EC100: 10 µM
  minimal effective concentration: 1 µM
  CC2 (cytotoxic concentration): 20 µM
  CC1 (cytotoxic concentration): 10 µM
[2]
  CC2 (cytotoxic concentration): 320 µM
  CC1 (cytotoxic concentration): 320 µM
